Test results: ChEMBL document CHEMBL5465560, “Selectivity Literature for EUbOPEN Chemogenomic Library” (2024)

Legend:
[1] = target: DNA (cytosine-5)-methyltransferase 3A (Homo sapiens) (UniProt Q9Y6K1); conditions: at 10 µM
[2] = target: RAC-alpha serine/threonine-protein kinase (Homo sapiens, UniProt P31749); assay: Selectivity interaction (KinomeScan (DiscoverX)) EUB0001079a AKT1; conditions: at 1 µM
[3] = target: Ribosomal protein S6 kinase alpha-4 (Homo sapiens) (UniProt O75676); assay: Selectivity interaction (KinomeScan (DiscoverX)) EUB0000666a RPS6KA4; conditions: at 10 µM
[4] = target: Casein kinase I isoform epsilon (Homo sapiens, UniProt P49674); assay: Selectivity interaction (KinomeScan (DiscoverX)) EUB0000666a CSNK1E; conditions: at 10 µM
[5] = target: cAMP-dependent protein kinase catalytic subunit alpha (Homo sapiens, UniProt P17612); assay: Selectivity interaction (KinomeScan (DiscoverX)) EUB0000666a PRKACA; conditions: at 10 µM
[6] = target: Serine/threonine-protein kinase 16 (Homo sapiens, UniProt O75716); assay: Selectivity interaction (KinomeScan (DiscoverX)) EUB0001550a STK16; conditions: at 1 µM
[7] = target: T1, Tyrosine-protein kinase receptor TYRO3 (Homo sapiens) (UniProt Q06418); assay: Selectivity interaction (Upstate Kinase Profiler service (Millipore)) EUB0000056c TYRO3; conditions: at 1 µM
T1 sequence (whole entry): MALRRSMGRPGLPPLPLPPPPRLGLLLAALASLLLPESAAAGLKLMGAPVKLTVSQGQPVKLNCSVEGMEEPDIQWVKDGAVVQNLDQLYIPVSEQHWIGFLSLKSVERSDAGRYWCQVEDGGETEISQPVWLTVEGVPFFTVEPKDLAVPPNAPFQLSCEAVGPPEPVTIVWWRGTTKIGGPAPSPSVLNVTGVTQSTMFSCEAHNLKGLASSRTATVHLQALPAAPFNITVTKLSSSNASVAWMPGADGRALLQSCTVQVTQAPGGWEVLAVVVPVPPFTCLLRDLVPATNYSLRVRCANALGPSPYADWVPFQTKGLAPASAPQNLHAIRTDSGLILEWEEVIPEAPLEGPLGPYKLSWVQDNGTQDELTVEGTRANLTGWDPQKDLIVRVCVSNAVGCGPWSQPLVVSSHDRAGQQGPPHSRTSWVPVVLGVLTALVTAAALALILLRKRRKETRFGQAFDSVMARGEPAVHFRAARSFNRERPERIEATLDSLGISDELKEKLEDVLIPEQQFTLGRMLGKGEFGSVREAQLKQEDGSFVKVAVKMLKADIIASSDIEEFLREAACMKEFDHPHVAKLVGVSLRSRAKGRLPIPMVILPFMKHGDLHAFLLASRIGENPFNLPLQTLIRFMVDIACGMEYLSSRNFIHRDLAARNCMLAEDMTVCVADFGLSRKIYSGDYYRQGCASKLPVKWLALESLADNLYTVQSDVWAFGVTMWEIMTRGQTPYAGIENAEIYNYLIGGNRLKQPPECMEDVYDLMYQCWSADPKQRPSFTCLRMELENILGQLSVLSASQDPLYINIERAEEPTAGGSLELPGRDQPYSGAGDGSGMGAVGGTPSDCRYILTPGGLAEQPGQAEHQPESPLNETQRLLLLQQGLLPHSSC

[8] = target: Tyrosine-protein kinase FRK (Homo sapiens) (UniProt P42685); assay: Selectivity interaction (KinaseProfiler screening (Millipore)) EUB0000601a FRK; conditions: at 3 µM
[9] = target: T2, Rhodopsin kinase GRK7 (Homo sapiens) (UniProt Q8WTQ7); assay: Selectivity interaction (KinomeScan (DiscoverX)) EUB0000607a GRK7; conditions: at 10 µM
T2 sequence (whole entry): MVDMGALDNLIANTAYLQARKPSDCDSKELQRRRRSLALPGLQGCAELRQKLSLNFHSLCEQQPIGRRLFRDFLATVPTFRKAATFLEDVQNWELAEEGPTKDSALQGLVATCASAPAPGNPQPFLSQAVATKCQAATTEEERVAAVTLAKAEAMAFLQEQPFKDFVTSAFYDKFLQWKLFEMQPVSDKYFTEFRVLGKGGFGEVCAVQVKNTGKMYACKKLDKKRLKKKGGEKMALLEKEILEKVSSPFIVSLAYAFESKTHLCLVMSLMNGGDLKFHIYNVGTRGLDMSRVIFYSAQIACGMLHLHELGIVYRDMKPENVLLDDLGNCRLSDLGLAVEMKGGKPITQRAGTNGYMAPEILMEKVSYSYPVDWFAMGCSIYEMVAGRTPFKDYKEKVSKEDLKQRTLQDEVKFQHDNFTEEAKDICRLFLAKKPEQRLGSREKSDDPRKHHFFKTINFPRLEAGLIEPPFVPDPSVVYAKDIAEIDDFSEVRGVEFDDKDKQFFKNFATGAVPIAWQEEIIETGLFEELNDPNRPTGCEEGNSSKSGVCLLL

[10] = target: T3, Phosphorylase b kinase gamma catalytic chain, liver/testis isoform (Homo sapiens) (UniProt P15735); assay: Selectivity interaction (KinomeScan (DiscoverX)) EUB0000655a PHKG2; conditions: at 10 µM
T3 sequence (whole entry): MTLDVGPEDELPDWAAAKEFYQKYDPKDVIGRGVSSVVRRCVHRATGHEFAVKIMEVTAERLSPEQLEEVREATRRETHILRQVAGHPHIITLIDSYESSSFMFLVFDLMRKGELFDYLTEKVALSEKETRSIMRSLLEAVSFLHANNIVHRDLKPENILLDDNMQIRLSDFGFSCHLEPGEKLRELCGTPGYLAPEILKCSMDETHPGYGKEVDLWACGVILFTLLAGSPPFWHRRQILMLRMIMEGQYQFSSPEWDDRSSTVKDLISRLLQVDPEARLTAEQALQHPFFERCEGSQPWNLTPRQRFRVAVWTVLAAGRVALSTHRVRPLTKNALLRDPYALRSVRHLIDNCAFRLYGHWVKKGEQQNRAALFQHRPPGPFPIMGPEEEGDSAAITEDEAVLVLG

[11] = target: Proto-oncogene tyrosine-protein kinase Src (Homo sapiens, UniProt P12931); conditions: at 10 µM
[12] = target: Insulin receptor-related protein (Homo sapiens) (UniProt P14616); conditions: at 10 µM
[13] = target: Cyclin-dependent kinase-like 3 (Homo sapiens) (UniProt Q8IVW4); assay: Selectivity interaction (KinomeScan (DiscoverX)) EUB0000092b CDKL3; conditions: at 10 µM
[14] = target: Serine/threonine-protein kinase MRCK alpha (Homo sapiens) (UniProt Q5VT25); assay: Selectivity interaction (Ambit KINOMEscan and KiNATiv profiling in Jurkat cells) EUB0000090b CDC42BPA; format: cell-based; conditions: at 1 µM
Serine/threonine-protein kinase MRCK alpha (Homo sapiens), sequence (Q5VT25 whole entry): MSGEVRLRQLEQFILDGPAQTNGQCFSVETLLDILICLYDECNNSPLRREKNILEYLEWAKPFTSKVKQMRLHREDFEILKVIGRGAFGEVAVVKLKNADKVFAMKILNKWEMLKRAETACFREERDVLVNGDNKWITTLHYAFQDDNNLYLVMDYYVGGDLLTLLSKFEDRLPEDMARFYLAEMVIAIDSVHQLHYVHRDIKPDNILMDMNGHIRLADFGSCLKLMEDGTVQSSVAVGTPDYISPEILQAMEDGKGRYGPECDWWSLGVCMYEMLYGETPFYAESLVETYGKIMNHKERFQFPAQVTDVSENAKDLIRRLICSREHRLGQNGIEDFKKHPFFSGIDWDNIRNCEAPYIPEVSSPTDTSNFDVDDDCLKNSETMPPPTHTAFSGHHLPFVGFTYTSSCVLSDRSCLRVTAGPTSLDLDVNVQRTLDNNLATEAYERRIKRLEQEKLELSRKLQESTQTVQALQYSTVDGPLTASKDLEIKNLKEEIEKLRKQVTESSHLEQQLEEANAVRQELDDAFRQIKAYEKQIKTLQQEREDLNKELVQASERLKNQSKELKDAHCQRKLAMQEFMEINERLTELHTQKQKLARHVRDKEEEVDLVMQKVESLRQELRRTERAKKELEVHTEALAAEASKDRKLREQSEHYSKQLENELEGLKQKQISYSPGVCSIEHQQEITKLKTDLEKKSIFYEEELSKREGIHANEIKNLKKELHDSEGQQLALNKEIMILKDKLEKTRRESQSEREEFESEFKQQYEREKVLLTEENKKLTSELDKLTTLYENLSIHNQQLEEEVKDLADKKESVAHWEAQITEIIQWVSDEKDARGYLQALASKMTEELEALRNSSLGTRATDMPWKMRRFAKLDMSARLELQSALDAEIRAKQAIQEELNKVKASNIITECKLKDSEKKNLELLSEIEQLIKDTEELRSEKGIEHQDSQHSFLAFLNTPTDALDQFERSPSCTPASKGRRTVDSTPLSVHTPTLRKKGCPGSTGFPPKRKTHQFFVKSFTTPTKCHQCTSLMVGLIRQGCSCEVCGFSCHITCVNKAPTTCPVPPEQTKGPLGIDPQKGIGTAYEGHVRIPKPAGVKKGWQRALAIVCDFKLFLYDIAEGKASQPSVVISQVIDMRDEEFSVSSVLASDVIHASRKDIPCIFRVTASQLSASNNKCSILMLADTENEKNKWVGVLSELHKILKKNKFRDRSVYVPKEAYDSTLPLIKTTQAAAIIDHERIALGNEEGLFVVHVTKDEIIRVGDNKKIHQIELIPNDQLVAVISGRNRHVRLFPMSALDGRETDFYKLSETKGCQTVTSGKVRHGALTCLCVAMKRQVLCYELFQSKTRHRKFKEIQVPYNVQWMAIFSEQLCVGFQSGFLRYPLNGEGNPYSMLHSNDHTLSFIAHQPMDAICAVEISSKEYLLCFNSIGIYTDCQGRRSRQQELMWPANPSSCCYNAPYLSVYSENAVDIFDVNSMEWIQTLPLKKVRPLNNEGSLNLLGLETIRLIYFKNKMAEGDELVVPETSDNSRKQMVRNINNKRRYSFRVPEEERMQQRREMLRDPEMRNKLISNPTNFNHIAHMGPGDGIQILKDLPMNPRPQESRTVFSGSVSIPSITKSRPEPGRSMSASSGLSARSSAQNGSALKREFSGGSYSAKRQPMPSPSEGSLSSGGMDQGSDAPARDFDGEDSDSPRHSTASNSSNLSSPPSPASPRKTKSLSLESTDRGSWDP

Proto-oncogene tyrosine-protein kinase Src, sequence (P12931 2-536 limits assumed): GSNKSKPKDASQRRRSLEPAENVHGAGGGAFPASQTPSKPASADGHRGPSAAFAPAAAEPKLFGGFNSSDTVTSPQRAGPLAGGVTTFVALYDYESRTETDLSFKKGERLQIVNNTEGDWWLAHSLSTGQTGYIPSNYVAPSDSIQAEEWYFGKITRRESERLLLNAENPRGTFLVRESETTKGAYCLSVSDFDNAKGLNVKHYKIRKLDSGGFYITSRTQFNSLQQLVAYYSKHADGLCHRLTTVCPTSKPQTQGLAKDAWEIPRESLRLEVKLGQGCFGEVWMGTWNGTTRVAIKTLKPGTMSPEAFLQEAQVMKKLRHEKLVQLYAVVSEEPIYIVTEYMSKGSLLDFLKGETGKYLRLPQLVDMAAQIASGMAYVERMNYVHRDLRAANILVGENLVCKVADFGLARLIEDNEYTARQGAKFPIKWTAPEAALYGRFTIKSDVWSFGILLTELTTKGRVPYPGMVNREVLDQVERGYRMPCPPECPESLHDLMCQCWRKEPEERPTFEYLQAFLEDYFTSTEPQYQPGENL
Tyrosine-protein kinase FRK (Homo sapiens), sequence (P42685 whole entry): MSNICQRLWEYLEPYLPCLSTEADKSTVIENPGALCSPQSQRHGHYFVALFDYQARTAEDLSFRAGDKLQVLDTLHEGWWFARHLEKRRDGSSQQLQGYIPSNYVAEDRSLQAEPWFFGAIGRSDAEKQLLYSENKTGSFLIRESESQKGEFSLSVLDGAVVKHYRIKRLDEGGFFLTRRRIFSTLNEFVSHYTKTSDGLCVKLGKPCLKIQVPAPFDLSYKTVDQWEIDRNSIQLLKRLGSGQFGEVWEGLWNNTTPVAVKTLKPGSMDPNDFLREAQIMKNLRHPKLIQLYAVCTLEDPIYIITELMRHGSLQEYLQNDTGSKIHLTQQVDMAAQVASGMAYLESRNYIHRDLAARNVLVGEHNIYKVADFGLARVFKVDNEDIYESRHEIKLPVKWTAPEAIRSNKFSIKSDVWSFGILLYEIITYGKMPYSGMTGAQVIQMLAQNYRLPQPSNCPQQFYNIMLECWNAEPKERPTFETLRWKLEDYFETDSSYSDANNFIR
Cyclin-dependent kinase-like 3 (Homo sapiens), sequence (Q8IVW4 whole entry, looked up): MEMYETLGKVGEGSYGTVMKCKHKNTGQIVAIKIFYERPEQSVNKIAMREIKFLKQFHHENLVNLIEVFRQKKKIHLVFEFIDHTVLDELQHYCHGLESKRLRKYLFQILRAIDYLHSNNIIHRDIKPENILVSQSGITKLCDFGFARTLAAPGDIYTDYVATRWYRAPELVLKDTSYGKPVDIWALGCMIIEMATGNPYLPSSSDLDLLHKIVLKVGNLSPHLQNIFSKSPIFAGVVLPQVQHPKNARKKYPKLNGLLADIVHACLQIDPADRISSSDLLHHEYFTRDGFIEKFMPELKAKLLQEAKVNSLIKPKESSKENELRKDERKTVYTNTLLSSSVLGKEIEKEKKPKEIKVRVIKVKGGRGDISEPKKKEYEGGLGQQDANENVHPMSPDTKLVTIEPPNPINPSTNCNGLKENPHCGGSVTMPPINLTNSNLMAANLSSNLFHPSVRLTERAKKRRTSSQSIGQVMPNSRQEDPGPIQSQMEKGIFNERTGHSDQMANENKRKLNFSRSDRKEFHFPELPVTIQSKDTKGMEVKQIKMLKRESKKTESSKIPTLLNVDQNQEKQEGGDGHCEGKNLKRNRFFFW
Ribosomal protein S6 kinase alpha-4 (Homo sapiens), sequence (O75676 whole entry, looked up, canonical isoform): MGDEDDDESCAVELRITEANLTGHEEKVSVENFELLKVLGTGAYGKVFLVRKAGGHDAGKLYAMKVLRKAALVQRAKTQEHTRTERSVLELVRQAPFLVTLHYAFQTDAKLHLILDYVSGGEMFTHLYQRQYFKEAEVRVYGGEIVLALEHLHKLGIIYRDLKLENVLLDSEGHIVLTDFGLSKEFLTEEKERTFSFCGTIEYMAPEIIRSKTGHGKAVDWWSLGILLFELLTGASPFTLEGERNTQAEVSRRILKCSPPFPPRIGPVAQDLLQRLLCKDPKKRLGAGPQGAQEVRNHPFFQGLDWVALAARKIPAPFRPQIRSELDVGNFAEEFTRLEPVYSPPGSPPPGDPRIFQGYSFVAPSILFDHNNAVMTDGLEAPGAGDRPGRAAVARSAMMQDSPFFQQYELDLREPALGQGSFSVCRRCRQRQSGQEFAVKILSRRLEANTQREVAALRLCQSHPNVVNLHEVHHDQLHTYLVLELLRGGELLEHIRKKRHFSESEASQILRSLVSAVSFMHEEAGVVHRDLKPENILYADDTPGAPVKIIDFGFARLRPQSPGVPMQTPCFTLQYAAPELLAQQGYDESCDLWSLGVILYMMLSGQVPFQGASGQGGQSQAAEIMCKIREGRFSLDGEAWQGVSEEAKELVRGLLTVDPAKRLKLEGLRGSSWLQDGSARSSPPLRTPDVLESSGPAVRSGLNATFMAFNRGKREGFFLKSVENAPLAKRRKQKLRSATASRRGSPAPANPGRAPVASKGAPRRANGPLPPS
RAC-alpha serine/threonine-protein kinase, sequence (P31749 whole entry): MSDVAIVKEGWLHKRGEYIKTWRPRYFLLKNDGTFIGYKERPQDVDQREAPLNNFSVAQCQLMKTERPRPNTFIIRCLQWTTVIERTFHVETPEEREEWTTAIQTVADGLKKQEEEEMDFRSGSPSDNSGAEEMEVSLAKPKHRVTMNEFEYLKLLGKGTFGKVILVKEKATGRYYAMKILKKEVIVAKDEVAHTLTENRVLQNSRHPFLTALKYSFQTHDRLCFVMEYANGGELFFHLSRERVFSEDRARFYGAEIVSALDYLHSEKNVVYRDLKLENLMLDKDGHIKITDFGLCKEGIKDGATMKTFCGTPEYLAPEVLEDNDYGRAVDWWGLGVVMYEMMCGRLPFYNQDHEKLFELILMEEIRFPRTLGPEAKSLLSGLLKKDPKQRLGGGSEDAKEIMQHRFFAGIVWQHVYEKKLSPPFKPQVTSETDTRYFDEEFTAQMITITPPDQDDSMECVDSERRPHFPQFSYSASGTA
Serine/threonine-protein kinase 16, sequence (O75716 whole entry): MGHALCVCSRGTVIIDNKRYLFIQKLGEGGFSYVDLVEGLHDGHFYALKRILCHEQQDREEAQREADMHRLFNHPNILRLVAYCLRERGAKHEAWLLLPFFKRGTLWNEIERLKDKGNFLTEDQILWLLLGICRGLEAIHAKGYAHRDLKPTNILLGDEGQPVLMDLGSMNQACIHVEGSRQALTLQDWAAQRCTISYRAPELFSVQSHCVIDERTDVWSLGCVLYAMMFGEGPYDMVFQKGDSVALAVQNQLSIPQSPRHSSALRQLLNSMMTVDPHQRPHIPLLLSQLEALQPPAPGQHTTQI

Molecule `CNCCN1CCC(c2cc(CN(C)C(=O)c3cccc(Oc4ccccc4)c3)ccn2)CC1` has a % activity [1] greater than 90%.
Work on `Nc1cnc(N2CCc3cc(S(=O)(=O)Nc4c(F)cc(Cl)cc4F)cc(N4CCCC4=O)c32)nc1` [TP-020n] yielded a % of control [2] of 100%.
With `O=C(NOC[C@H](O)CO)c1ccc(F)c(F)c1Nc1ccc(I)cc1F` the % of control [3] was 100%, the % of control [4] was 100% and the % of control [5] was 72%.
`CN(C)CC#Cc1ccc2[nH]c3c(c2c1)-c1nc(N)ncc1CCC3` gave a % of control [6] of 14%.
In the case of `Cc1ccc(-c2ccc3c(ccc4sc5c(c43)NC[C@@H](C)NC5=O)n2)cn1`, the % of inhibition [7] is reported as 10%.
For `CCc1cc(Nc2nccc(-c3c(-c4ccc(OC)c(C(=O)Nc5c(F)cccc5F)c4)nc4ccccn34)n2)c(OC)cc1N1CCC(N2CCN(S(C)(=O)=O)CC2)CC1`, the % of inhibition [8] was 97%.
For `CNC(=O)Nc1ccc(-c2nc(N3CC4CCC(C3)O4)c3cnn(C4CCC5(CC4)OCCO5)c3n2)cc1`, the % of control [9] was 91%.
With `CN(C)CCOc1ccc(-c2nc(-c3ccncc3)c(-c3ccc4c(c3)CC/C4=N\O)[nH]2)cc1` the % of control [10] was 100%.
Work on `CCN(CC)CCCCNc1ncc2cc(-c3cc(OC)cc(OC)c3)c(NC(=O)NC(C)(C)C)nc2n1` yielded a % of control [11] of 100% and a % of control [12] of 100%.
For `CCC(=O)N1CCN(c2ccc(-n3c(=O)ccc4cnc5ccc(-c6cnc7ccccc7c6)cc5c43)cc2C(F)(F)F)CC1`, the % of control [13] was 92%.
`CN(C)C/C=C/C(=O)Nc1ccc(C(=O)N2CCCC(Nc3ncc(Cl)c(-c4c[nH]c5ccccc45)n3)C2)cc1` (centres undefined) showed a % of control [14] of 86%.
